The target of the assay is T1, recombinant human 15-PGDH (Homo sapiens, UniProt P15428).
T1 construct: purchased R&D Systems
T1 sequence (P15428 1-266): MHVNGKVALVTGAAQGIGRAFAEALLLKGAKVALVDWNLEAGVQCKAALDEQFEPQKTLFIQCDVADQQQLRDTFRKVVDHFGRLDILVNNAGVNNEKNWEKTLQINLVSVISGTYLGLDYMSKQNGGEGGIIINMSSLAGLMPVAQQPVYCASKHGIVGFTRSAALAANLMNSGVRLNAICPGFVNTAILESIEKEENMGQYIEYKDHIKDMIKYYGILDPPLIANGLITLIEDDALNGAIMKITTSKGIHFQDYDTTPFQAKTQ
The experiment in a line: 15-PGDH enzyme inhibition test. It is filed as biochemical. The conditions noted are these: 4 nM recombinant human 15-PGDH, 30 μM PGE2, 1 mM NAD+, 60 minutes after starting the reaction; read-out: IC50 Value. The method in brief:
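4 nM recombinant human enzyme pre-incubated with compound 12 min at room temperature in 50 mM Tris-HCl pH 8.0 with 0.01% Tween 20 and 0.01% bovine gamma globulin. Reaction started with 30 μM PGE2 and 1 mM NAD+, read after 60 min by fluorescence (ex 340/em 440 nm). IC50 from concentration-response curve.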

A word on the IC50: it is the concentration needed to halve the response being measured. As for `CN1CCN(c2ccccc2)c2ncc(C(=O)N3CCCCC3)cc21` [Example 1-228], the IC50 is over 100 nM.

In the case of `O=C(O)c1cccc(N2CCc3cc(C(=O)N4CCCCC4)ccc32)c1` [Example 2-29], the half-maximal inhibitory concentration (IC50) is under 10 nM.

For the compound `Cn1cnc2cc(N3CCCc4cc(C(=O)N5CCCCC5)cnc43)cnc2c1=O` [Example 1-190], the IC50 was under 10 nM.

Regarding `O=C(O)c1ccc(N2CCOc3nc(C(=O)N4CCCCC4)ccc32)cc1` [Example 4-4], the IC50 is under 10 nM.

For the compound `CCn1nc2cc(N3CCCc4cc(C(=O)N5CCC(F)(F)CC5)cnc43)ccn2c1=O` [Example 1-75], the IC50 is under 10 nM.

Take `CCN1Cc2cc(N3CCCc4cc(C(=O)N5CCc6ccccc6C5)cnc43)ccc2C1=O` [Example 8-76]: the IC50 was under 10 nM.

Take `COC(=O)Cn1nc2cc(N3CCOc4cc(C(=O)N5CCCCC5)cnc43)ccn2c1=O` [Example 1-40]: the IC50 was under 10 nM.

With `O=C(O)c1ccc(N2CCSc3cc(C(=O)N4CCCCC4)ccc32)cc1` [Example 2-15], the IC50 was under 10 nM.

With `C[C@@H]1CCCN(C(=O)c2cnc3c(c2)OCCCN3c2ccn3c(=O)n(C)nc3c2)C1` [Example 8-60], the IC50 was under 10 nM.

`COCCOCCn1nc2cc(N3CCCc4cc(C(=O)N5CCC(F)(F)CC5)cnc43)ccn2c1=O` [Example 1-80]: the concentration for half-maximal inhibition (IC50) is under 10 nM.

On to `CC1CCN(C(=O)c2cnc3c(c2)CCCN3c2ccn3c(=O)n(C)nc3c2)CC1` [Example 8-136], for which the IC50 was under 10 nM.

For the compound `O=C1NCc2cc(N3CCOc4cc(C(=O)N5CCC(F)(F)CC5)cnc43)ccc21` [Example 14-6], the half-inhibitory concentration (IC50) was under 10 nM.

Regarding `COCCOCCn1nc2cc(N3CCCc4cc(C(=O)N5CCCCC5)cnc43)ccn2c1=O` [Example 1-71], the IC50 was under 10 nM.

In the case of `CCOCCN1Cc2cc(N3CCOc4cc(C(=O)N5CCC(F)(F)CC5)cnc43)ccc2C1=O` [Example 1-50], the half-maximal inhibitory concentration (IC50) was under 10 nM.

As for `O=C(c1cnc2c(c1)CCCN2c1ccc2c(c1)CN(CC1COC1)C2=O)N1CCCCC1` [Example 1-65], the IC50 was under 10 nM.

With `Cn1nc2cc(N3CCCc4cc(C(=O)N5Cc6ccccc6C5)cnc43)ccn2c1=O` [Example 8-131], the IC50 is under 10 nM.

For the compound `O=C(NC1COC1)c1ccc(N2CCCc3cc(C(=O)N4CCCCC4)cnc32)cc1F` [Example 1-62], the 50% inhibitory concentration (IC50) was under 10 nM.

Regarding `CCOCCN1Cc2cc(N3CCCc4cc(C(=O)N5CCCCC5)cnc43)ccc2C1=O` [Example 1-63], the IC50 is under 10 nM.

Regarding `COCn1nc2cc(N3CCCc4cc(C(=O)N5CCC[C@@H](C(F)F)C5)cnc43)ccn2c1=O` [Example 8-119], the IC50 is under 10 nM.

Consider `COCCNC(=O)c1cnc2c(c1)OCCN2c1ccn2c(=O)n(C)nc2c1` [Example 8-105], for which the IC50 was under 10 nM.

For `C[C@@H]1COc2cc(C(=O)N3CCCCC3)ccc2N(c2ccc(C(=O)O)cc2)C1` [Example 2-11], the IC50 is under 10 nM.

Turning to `CCOCn1nc2cc(N3CCOc4cc(C(=O)N5CCC(F)(F)CC5)cnc43)ccn2c1=O` [Example 1-44], the IC50 was under 10 nM.

On to `COc1cc(N2CCOc3cc(C(=O)N4CCCCC4)ccc32)ccc1C(=O)O` [Example 2-12], for which the IC50 was under 10 nM.

For `CCn1nc2cc(N3CCCc4cc(C(=O)N5CCC[C@@H](F)C5)cnc43)ccn2c1=O` [Example 8-162], the IC50 is under 10 nM.

Take `CCn1nc2cc(N3CCCc4cc(C(=O)N5CCC[C@@H](CF)C5)cnc43)ccn2c1=O` [Example 1-120]: the IC50 was under 10 nM.

In the case of `Cn1nc2cc(N3CCOc4cc(C(=O)N5CCC(Cl)CC5)cnc43)ccn2c1=O` [Example 8-113], the concentration for half-maximal inhibition (IC50) was under 10 nM.

As to `C[C@H]1CCCCN1C(=O)c1cnc2c(c1)OCCN2c1ccc2c(c1)CN(C)C2=O` [Example 8-196], the IC50 is under 10 nM.

As to `COc1ccc(N2CCCc3cc(C(=O)N4CCCCC4)cnc32)cc1` [Example 1-200], the half-inhibitory concentration (IC50) lay in the range of 10 to 100 nM.

On to `Cn1nc2cc(N3CCOc4cc(C(=O)N5CCCC(C)(F)C5)cnc43)ccn2c1=O` (centres unmarked) [Example 8-48], for which the IC50 is under 10 nM.

On to `CNC(=O)c1ccc(N2CCOc3cc(C(=O)N4CCCCC4)cnc32)cc1C` [Example 6-12], for which the concentration for half-maximal inhibition (IC50) is over 100 nM.

As to `CCn1nc2cc(N3CCCc4cc(C(=O)N5CC=CCC5)cnc43)ccn2c1=O` [Example 8-154], the IC50 is under 10 nM.

For the compound `COc1cc(N2CCOc3cc(C(=O)N4CCC(F)(F)CC4)ccc32)ccc1C(N)=O` [Example 5-2], the IC50 was under 10 nM.

As for `O=C(c1cnc2c(c1)CCCN2c1ccc(F)cc1)N1CCCCC1` [Example 1-214], the IC50 was in the range of 10 to 100 nM.

On to `COC(=O)C(C)(C)c1ccc(N2CCOc3cc(C(=O)N4CCCCC4)cnc32)cc1` [Example 1-247], for which the IC50 is over 100 nM.

Turning to `O=C1NCc2cc(N3CCOc4cc(C(=O)N5CCCCC5)cnc43)ncc21` [Example 14-9], the concentration for half-maximal inhibition (IC50) was under 10 nM.

For `O=C(O)c1ccccc1N1CCOc2cc(C(=O)N3CCCCC3)ccc21` [Example 2-27], the 50% inhibitory concentration (IC50) was over 100 nM.

For `Cn1ccc2cc(N3CCCc4cc(C(=O)N5CCCCC5)cnc43)ccc2c1=O` [Example 1-174], the IC50 was under 10 nM.

For the compound `Cn1nc2cc(N3CCOc4cc(C(=O)N5CCC[C@H](C(F)(F)F)C5)cnc43)ccn2c1=O` [Example 8-116], the IC50 was under 10 nM.

Take `Cn1nc2cc(N3CCCc4cc(C(=O)N5CCCC(C)(F)C5)cnc43)ccn2c1=O` (centres unmarked) [Example 8-141]: the half-inhibitory concentration (IC50) is under 10 nM.

As for `Cn1nc2cc(N3CCCc4cc(C(=O)N5CCCC5)cnc43)ccn2c1=O` [Example 8-123], the IC50 was under 10 nM.

Take `CN1Cc2cc(N3CCOc4cc([S+]([O-])C5CCCCC5)cnc43)ccc2C1=O` (centres unmarked) [Example 7-9]: the IC50 is under 10 nM.

Turning to `Cn1nc2cc(N3CCOc4cc(C(=O)N5CCC(F)(F)CC5)ccc43)ccn2c1=O` [Example 1-147], the half-inhibitory concentration (IC50) is under 10 nM.

For `CNC(=O)c1ccc(N2CCCc3cc(C(=O)N4CCCCC4)cnc32)cn1` [Example 1-210], the half-inhibitory concentration (IC50) is under 10 nM.

For the compound `Cn1cnc2cc(N3CCOc4cc(C(=O)N5CCCCC5)cnc43)ncc2c1=O` [Example 1-39], the IC50 is 10 to 100 nM.

With `CNC(=O)Cn1nc2cc(N3CCOc4cc(C(=O)N5CCCCC5)cnc43)ccn2c1=O` [Example 6-7], the IC50 is under 10 nM.

On to `CS(=O)(=O)NCc1ccc(N2CCOc3cc(C(=O)N4CCCCC4)ccc32)cc1` [Example 1-160], for which the IC50 is under 10 nM.

On to `O=C(O)C1CCC(N2CCOc3cc(C(=O)N4CCCCC4)ccc32)CC1` (centres unmarked) [Example 4-13], for which the half-maximal inhibitory concentration (IC50) was in the range of 10 to 100 nM.

`O=C(c1cnc2c(c1)OCCN2c1ccn2c(=O)n(-c3ccccn3)nc2c1)N1CCCCC1` [Example 1-35]: the IC50 was under 10 nM.

Take `O=C(c1cnc2c(c1)OCCN2c1ccc2c(c1)C(C1CC1)=NS2(=O)=O)N1CCCCC1` [Example 1-167]: the IC50 is 10 to 100 nM.

As to `Cn1nc2cc(N3CCCc4cc(C(=O)N5CCCC(F)(F)C5)cnc43)ccn2c1=O` [Example 8-139], the 50% inhibitory concentration (IC50) was under 10 nM.

For the compound `CN1CCN(c2ccn3c(=O)n(C)nc3c2)c2ncc(C(=O)N3CCCCC3)cc21` [Example 29-1, 2-Methyl-7-(l-methyl-7-(piperidine-1-carbonyl)-2,3-dihydropyrido[2,3-b]pyrazin-4(1H)-yl)-[1,2,4]triazolo[4,3-a]pyridin-3(2H)-one], the IC50 was under 10 nM.

As for `CN1Cc2cc(N3CCOc4cc(C(=O)N5CCCCC5)cnc43)ccc2C1=O` [Example 1-23], the IC50 is under 10 nM.

Consider `CCOc1noc2cc(N3CCOc4cc(C(=O)N5CCCCC5)cnc43)ccc12` [Example 8-215], for which the IC50 is under 10 nM.

Turning to `COC(=O)c1cccc(N2CCc3cc(C(=O)N4CCCCC4)ccc32)c1` [Example 1-139], the IC50 is under 10 nM.

Take `O=C(c1cnc2c(c1)OCCN2c1ccn2c(=O)n(Cc3ccncc3)nc2c1)N1CCCCC1` [Example 1-34]: the half-inhibitory concentration (IC50) was under 10 nM.

For the compound `CN1Cc2cc(N3CCOc4cc(C(=O)N5CCC[C@@H](C(F)(F)F)C5)cnc43)ccc2C1=O` [Example 8-207], the IC50 was under 10 nM.

As for `Cn1nc2cc(N3CCOc4cc(C(=O)N5CCC(F)(F)CC5)cnc43)ccn2c1=O` [Example 8-26], the IC50 was under 10 nM.

For the compound `COCCN(C)C(=O)c1cnc2c(c1)OCCN2c1ccn2c(=O)n(C)nc2c1` [Example 8-106], the IC50 was under 10 nM.

Turning to `Cn1nc2cc(N3CCCCOc4cc(C(=O)N5CCCCC5)cnc43)ccn2c1=O` [Example 1-98], the half-inhibitory concentration (IC50) is 10 to 100 nM.

Consider `COc1cc(N2CCOc3cc(C(=O)N4CC=CCC4)ccc32)ccc1C(=O)O` [Example 2-14], for which the IC50 was under 10 nM.

Consider `Cn1nc2cc(N3CCOc4cc(C(=O)N5CC6CC6C5)cnc43)ccn2c1=O` (centres unmarked) [Example 8-99], for which the IC50 is under 10 nM.

Take `O=C(O)c1cccc(N2CCOc3cc(C(=O)N4CCCCC4)cnc32)c1` [Example 4-19]: the IC50 is 10 to 100 nM.

As for `O=C(O)Cc1ccc(N2CCOc3cc(C(=O)N4CCCCC4)ccc32)cc1` [Example 2-32], the half-inhibitory concentration (IC50) was under 10 nM.

As for `Cc1nccc(N2CCOc3cc(C(=O)N4CCC(F)(F)CC4)ccc32)n1` [Example 24-3], the IC50 lay within 10 to 100 nM.

Turning to `CCOCn1nc2cc(N3CCCc4cc(C(=O)N5CCC[C@H](CF)C5)cnc43)ccn2c1=O` [Example 1-115], the concentration for half-maximal inhibition (IC50) is under 10 nM.

For `O=C(O)C1CCC(N2CCOc3cc(C(=O)N4CCCCC4)ccc32)CC1` (centres unmarked) [Example 4-14], the concentration for half-maximal inhibition (IC50) is under 10 nM.

For `CCOCCN1Cc2cc(N3CCCc4cc(C(=O)N5CCC(F)(F)CC5)cnc43)ncc2C1=O` [Example 1-185], the half-inhibitory concentration (IC50) is 10 to 100 nM.

On to `Cn1nc2cc(N3CCCc4cc([S+]([O-])C5CCCCC5)cnc43)ccn2c1=O` (centres unmarked) [Example 7-7], for which the half-inhibitory concentration (IC50) is under 10 nM.
